Data set [1] is described as follows: Cell permeability, flux assay using Caco-2 cells. The class given is in vitro ADME. Particulars: human, basal to apical, 2 hours incubation. The procedure: B-5. Determination of Cell Permeability:
The cell permeability of a substance can be analyzed by means of in vitro tests in a flux assay using Caco-2-cells [M. D. Troutman and D. R. Thakker, Pharm. Res. 20 (8), 1210-1224 (2003)]. For this analysis the cells were cultured on 24 membrane filter plates for 15 to 16 days. In order to determine permeation the test substance in question was given either apical (A) to a HEPES buffer or basal (B) on the cells and incubated for 2 hours. The samples were withdrawn after 0 and 2 hours from the cis and trans compartments. The samples were separated by means of HPLC (Agilent 1200, Böblingen, Germany) using reverse-phase columns. The HPLC system was coupled to a triple quadropol mass spectrometer API 4000 (Applied Biosystems Applera, Darmstadt, Germany) via a turbo ion spray. The permeability was evaluated by means of the Papp value which was calculated with the help of the formula published by Schwab et al. [D. Schwab et al., J. Med. Chem. 46, 1716-1725 (2003)]. A substance was classified as active if the ratio of Papp (B-a) to Papp (A-B) was >2 or <0.5.
The permeability from B to A [Papp^(B-A)] is particularly important for toxophores which are being released intracellular: The lower the permeability the longer the residence time of the substance in the cell after intracellular release and, consequently, the more time available for interaction with the biochemical target (here: tubulin).
On the technique in general: Passage across Caco-2 layers is used to estimate intestinal permeability.

Another data set has as its system HT-29 wt cell line. Description: Anti-proliferative effect on HT-29 wt cell line (MTT assay). The conditions noted are these: Homo sapiens, HT-29 wt cells, incubation 48 to 96 hours, medium with 10% FCS. The class given is cell-based, human. The procedure: B-2. Determination of Anti-proliferative Effects of HT-29 wt Cell Line:
After 18 hours the seed medium was replaced by a fresh medium with 10% FCS. The treatment started with measuring out the respective test substance. The dose-response curves were determined of the investigative substances with a concentration of 10^−5 M to 10^−14 M (1:10 dilutions). Incubation times of between 48 hours and 96 hours were chosen. The proliferation was detected by means of the MTT assay (ATCC, Manassas, Va., USA, catalogue no. 30-1010K). After completion of selected incubation period the MTT reagent was incubated with the cells for 4 hours before lysis occurred over night by measuring out the detergent. The created stain was detected at 570 nm. The proliferation of the cells, which were treated identically to the other cells but without the test substance, was defined as the 100% value. The data obtained from this test represent triple determinations and at least two experiments had been carried out independently of each other.
A general note: Tetrazolium assays rely on reduction of a dye to a coloured formazan, in cell work by metabolically active cells.

Data set [2] deals with human renal carcinoma cell line 786-0. Description: Anti-proliferative effect on renal cell carcinoma 786-0 cell line (MTT assay). The class given is cell-based. Particulars: Homo sapiens, 786-0 cells, incubation 48 to 96 hours, serum free medium or 2% FCS. The procedure:
B-1. Determination of Anti-proliferative Effects of Renal Cell Carcinoma 786-0 Cell Line:
A defined number of cells of the human renal carcinoma cell line 786-0 were cultured in a 96 well micro titer plate in rich medium (2500 or 7.000 cells/well) and then incubated over night at 37° C./5% CO2. After 18 hours the seed medium was replaced by a serum free medium or medium with 2% FCS. The treatment began with measuring out the respective test substances in varying concentrations (10^−5 M to 10^−14 M). Incubation times of between 48 hours and 96 hours were chosen. The proliferation was determined by means of the MTT assay (ATCC, Manassas, Va., USA, catalogue no. 30-1010K). After completion of incubation period the MTT reagent was incubated with the cells for 4 hours before lysis occurred over night by measuring out the detergent. The created stain was detected at 570 nm. The proliferation of the cells, which were treated identically to the other cells but without the test substance was defined as the 100% value. The data obtained from this test represent triple determinations and at least two experiments had been carried out independently of each other.

Square brackets hold non-standard residues; d marks the D form. Peptide text beside a SMILES is read from it. * marks the point of attachment. NMeVal(N-(CH2)3COOH) = CC(C)[C@@H](C(=O)*)N(C)CCCC(=O)O; Dolaproine = CO[C@@H]([C@@H]1CCCN1)[C@@H](C)C(=O)O; Dil = CC[C@H](C)[C@H](NC)[C@@H](CC(=O)O)OC; X3 = CC(C)[C@@H](C(=O)*)N(C)CCCCCC(=O)O; Morpholide = C1CN(*)CCO1; X1 = O=C(NN*)c1ccccc1; NHBn = c1ccc(CN*)cc1; OBn = c1ccc(CO*)cc1

For orientation: Papp B→A means how fast a substance crosses the layer from the basolateral side. In data set [1], `CC[C@H](C)[C@@H]([C@@H](CC(=O)N1CCC[C@H]1[C@H](OC)[C@@H](C)C(=O)N[C@@H](Cc1ccccc1)C(=O)OC)OC)N(C)C(=O)[C@@H](NC(=O)[C@H](C(C)C)N(C)CCCC(=O)O)C(C)C` [Example 7] ({NMeVal(N-(CH2)3COOH)}-V[Dil][Dolaproine]F-OMe) registered a Papp B→A at 2 h of 1.8 ×10⁻⁶ cm/s.

In general, IC50 refers to the concentration that inhibits the measured activity by half. The low end stands for higher potency, the high end for lower potency. As to `CC[C@H](C)[C@@H]([C@@H](CC(=O)N1CCC[C@H]1[C@H](OC)[C@@H](C)C(=O)N[C@@H](Cc1c[nH]c2ccccc12)C(=O)OCc1ccccc1)OC)N(C)C(=O)[C@@H](NC(=O)[C@H](C(C)C)N(C)CCCC(=O)O)C(C)C` [Example 8, N-(3-carboxypropyl)-N-methyl-L-valyl-N-[(3R,4S,5S)-1-{(2S)-2-[(1R,2R)-3-{[(2S)-1-(benzyloxy)-3-(1H-indol-3-yl)-1-oxopropane-2-yl]amino}-1-methoxy-2-methyl-3-oxopropyl]pyrrolidin-1-yl}-3-methoxy-5-methyl-1-oxoheptan-4-yl]-N-methyl-L-valinamide] ({NMeVal(N-(CH2)3COOH)}-V[Dil][Dolaproine]W-OBn), the IC50 worked out at 0.5 nM in the data set on HT-29 wt cell line and 5.2 nM in data set [2]. In data set [1], this compound registered a basolateral-to-apical permeability (Papp B→A) at 2 h of 2.2 ×10⁻⁶ cm/s. In the same order, the values of `CCCNC(=O)[C@]1(NC(=O)[C@H](C)[C@@H](OC)[C@@H]2CCCN2C(=O)C[C@@H](OC)[C@H]([C@@H](C)CC)N(C)C(=O)[C@@H](NC(=O)[C@H](C(C)C)N(C)CCCC(=O)O)C(C)C)C[C@@H]1c1ccccc1` [Example 11, N-(3-carboxypropyl)-N-methyl-L-valyl-N-[(3R,4S,5S)-3-methoxy-1-{(2S)-2-[(1R,2R)-1-methoxy-2-methyl-3-oxo-3-{[(1S,2R)-2-phenyl-1-(propylcarbamoyl)cyclopropyl]amino}propyl]pyrrolidin-1-yl}-5-methyl-1-oxoheptan-4-yl]-N-methyl-L-valinamide] are 0.8 nM, 6.7 nM and 1.1 ×10⁻⁶ cm/s.

`CCOC(=O)[C@]1(NC(=O)[C@H](C)[C@@H](OC)[C@@H]2CCCN2C(=O)C[C@@H](OC)[C@H]([C@@H](C)CC)N(C)C(=O)[C@@H](NC(=O)[C@H](C(C)C)N(C)CCCC(=O)O)C(C)C)C[C@@H]1c1ccccc1` [Example 12, N-(3-carboxypropyl)-N-methyl-L-valyl-N-[(3R,4S,5S)-1-{(2S)-2-[(1R,2R)-3-{[(1S,2R)-1-(ethoxycarbonyl)-2-phenylcyclopropyl]amino}-1-methoxy-2-methyl-3-oxopropyl]pyrrolidin-1-yl}-3-methoxy-5-methyl-1-oxoheptan-4-yl]-N-methyl-L-valinamide] had an IC50 in data set [2] of 13 nM. For the same compound, the basolateral-to-apical permeability (Papp B→A) at 2 h in data set [1] was 1.5 ×10⁻⁶ cm/s. For the compound `CC[C@H](C)[C@@H]([C@@H](CC(=O)N1CCC[C@H]1[C@H](OC)[C@@H](C)C(=O)N[C@@H](Cc1ccccc1)C(N)=O)OC)N(C)C(=O)[C@@H](NC(=O)[C@H](C(C)C)N(C)CCCC(=O)O)C(C)C` [Example 13, N-(3-carboxypropyl)-N-methyl-L-valyl-N-[(3R,4S,5S)-1-{(2S)-2-[(1R,2R)-3-{[(2S)-1-amino-1-oxo-3-phenylpropan-2-yl]amino}-1-methoxy-2-methyl-3-oxopropyl]pyrrolidin-1-yl}-3-methoxy-5-methyl-1-oxoheptan-4-yl]-N-methyl-L-valinamide] ({NMeVal(N-(CH2)3COOH)}-V[Dil][Dolaproine]F-NH2), the figures for the 50% inhibitory concentration (IC50) (with HT-29 wt cell line; in data set [2]) were 1 nM and 12.5 nM, respectively. Moreover, the Papp B→A at 2 h in data set [1] was 1 ×10⁻⁶ cm/s. As for `CC[C@H](C)[C@@H]([C@@H](CC(=O)N1CCC[C@H]1[C@H](OC)[C@@H](C)C(=O)N[C@@H](Cc1ccccc1)C(=O)NNC(=O)c1ccccc1)OC)N(C)C(=O)[C@@H](NC(=O)[C@H](C(C)C)N(C)CCCC(=O)O)C(C)C` [Example 14, (3R,4S,7S,10S)-3-(2-{(2S)-2-[(1R,2R)-3-{[(2S)-1-(2-benzoylhydrazino)-1-oxo-3-phenylpropane-2yl]amino}-1-methoxy-2-methyl-3-oxopropyl]pyrrolidin-1-yl}-2-oxoethyl)-4-[(2S)-butane-2-yl]-7,10-diisopropyl-5,11-dimethyl-6,9-dioxo-2-oxa-5,8,11-triazapentadecan-15-acid] ({NMeVal(N-(CH2)3COOH)}-V[Dil][Dolaproine]F-X1), in data set [2], the IC50 amounted to 59 nM. Further, the basolateral-to-apical permeability (Papp B→A) at 2 h in data set [1] was 0.3 ×10⁻⁶ cm/s. Consider `CC[C@H](C)[C@@H]([C@@H](CC(=O)N1CCC[C@H]1[C@H](OC)[C@@H](C)C(=O)N[C@@]1(C(N)=O)C[C@@H]1c1ccccc1)OC)N(C)C(=O)[C@@H](NC(=O)[C@H](C(C)C)N(C)CCCC(=O)O)C(C)C` [Example 17, N-(3-carboxypropyl)-N-methyl-L-valyl-N-[(3R,4S,5S)-1-{(2S)-2-[(1R,2R)-3-{[(1S,2R)-1-carbamoyl-2-phenylcyclopropyl]amino}-1-methoxy-2-methyl-3-oxopropyl]pyrrolidin-1-yl}-3-methoxy-5-methyl-1-oxoheptan-4-yl]-N-methyl-L-valinamide], for which the Papp B→A at 2 h in data set [1] stood at 0.2 ×10⁻⁶ cm/s. Compound `CC[C@H](C)[C@@H]([C@@H](CC(=O)N1CCC[C@H]1[C@H](OC)[C@@H](C)C(=O)N[C@@H](Cc1c[nH]c2ccccc12)C(N)=O)OC)N(C)C(=O)[C@@H](NC(=O)[C@H](C(C)C)N(C)CCCCCC(=O)O)C(C)C` [Example 19] (X3-V[Dil][Dolaproine]W-NH2) yielded an apparent permeability from basolateral to apical (Papp B→A) at 2 h in data set [1] of 0.2 ×10⁻⁶ cm/s. In data set [1], `CC[C@H](C)[C@@H]([C@@H](CC(=O)N1CCC[C@H]1[C@H](OC)[C@@H](C)C(=O)N[C@@H](Cc1ccccc1)C(=O)N1CCOCC1)OC)N(C)C(=O)[C@@H](NC(=O)[C@H](C(C)C)N(C)CCCC(=O)O)C(C)C` [Example 23, N-(3-carboxypropyl)-N-methyl-L-valyl-N-[(3R,4S,5S)-3-methoxy-1-{(2S)-2-[(1R,2R)-1-methoxy-2-methyl-3-{[(2S)-1-(morpholin-4-yl)-1-oxo-3-phenylpropane-2-yl]amino}-3-oxopropyl]pyrrolidin-1-yl}-5-methyl-1-oxoheptan-4-yl]-N-methyl-L-valinamide] ({NMeVal(N-(CH2)3COOH)}-V[Dil][Dolaproine]F-Morpholide) gave a basolateral-to-apical permeability (Papp B→A) at 2 h of 0.2 ×10⁻⁶ cm/s. Consider `CC[C@H](C)[C@@H]([C@@H](CC(=O)N1CCC[C@H]1[C@H](OC)[C@@H](C)C(=O)N[C@H](C(=O)NCc1ccccc1)[C@@H](C)O)OC)N(C)C(=O)[C@@H](NC(=O)[C@H](C(C)C)N(C)CCCC(=O)O)C(C)C` [Example 25, N-(3-carboxypropyl)-N-methyl-L-valyl-N-[(3R,4S,5S)-1-{(2S)-2-[(1R,2R)-3-{[(2S,3R)-1-(benzylamino)-3-hydroxy-1-oxobutane-2-yl]amino}-1-methoxy-2-methyl-3-oxopropyl]pyrrolidin-1-yl}-3-methoxy-5-methyl-1-oxoheptan-4-yl]-N-methyl-L-valinamide] ({NMeVal(N-(CH2)3COOH)}-V[Dil][Dolaproine]T-NHBn), for which the IC50 is 1.5 nM with HT-29 wt cell line and 164 nM in data set [2]. In the case of `CC[C@H](C)[C@@H]([C@@H](CC(=O)N1CCC[C@H]1[C@H](OC)[C@@H](C)C(=O)N[C@H](COCc1ccc(C(=O)OC)cc1)Cc1ccccc1)OC)N(C)C(=O)[C@@H](NC(=O)[C@H](C(C)C)N(C)CCCC(=O)O)C(C)C` [Example 26, N-(3-carboxypropyl)-N-methyl-L-valyl-N-[(3R,4S,5S)-3-methoxy-1-{(2S)-2-[(1R,2R)-1-methoxy-3-{[(2S)-1-{[4-(methoxycarbonyl)benzyl]oxy}-3-phenylpropane-2-yl]amino}-2-methyl-3-oxopropyl]pyrrolidin-1-yl}-5-methyl-1-oxoheptan-4-yl]-N-methyl-L-valinamide], the values for the IC50 (in the data set on HT-29 wt cell line; in data set [2]) were 1.5 nM and 10 nM, respectively.
